The assay has as its system MTT (mouse pheochromocytoma). The assay is described as follows: IC50 of cell viability (ATP content). Particulars: (24 or 48 h). In outline:
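MTT mouse pheochromocytoma cells were seeded into white 1536-well plates at 5 µl per well from a 200,000 cells/ml suspension in DMEM with 5% FBS and 1% horse serum, then cultured overnight at 37°C, 5% CO2. A pintool added 23 nl of library compound in DMSO at 8 concentrations (final 0.5 nM to 46 µM) for 24 or 48 hrs, and CellTiter-Glo ATP luminescence was read after 15 minutes. Signals were scaled so that positive-control wells equalled 100% and DMSO wells 0%. IC50 values were derived by fitting a four-parameter logistic curve.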

Where a name gives a salt, the structure may show the parent alone.

For `Nc1nnc(-c2cccc(Cl)c2Cl)c(N)n1` [Lamotrigine], the “IC50 of cell viability” value is greater than 46 µM.

`CCCCOc1ccc(C(=O)CCN2CCCCC2)cc1` [Dyclonine hydrochloride]: the “IC50 of cell viability” value was greater than 46 µM.

With `Cc1c(F)c(N2CCNC(C)C2)cc2c1c(=O)c(C(=O)O)cn2C1CC1` (configuration not stated) [GREPAFLOXACIN HYDROCHLORIDE], the “IC50 of cell viability” value is greater than 46 µM.

With `S=C=Nc1ccc(N=C=S)cc1` [Bitoscanate], the “IC50 of cell viability” value was greater than 46 µM.

Turning to `CN(c1nccc(O)n1)C1CCN(c2nc3ccccc3n2Cc2ccc(F)cc2)CC1` [MIZOLASTINE], the “IC50 of cell viability” value was greater than 46 µM.

As to `Nc1ccc([S+](=O)([O-])Nc2ccccn2)cc1` [Sulfapyridine], the “IC50 of cell viability” value is greater than 46 µM.

Regarding `CN(C)CCCN1c2ccccc2CCc2ccccc21` [IMIPRAMINE], the “IC50 of cell viability” value was greater than 46 µM.

On to `COC(=O)C1=C(C)NC(C)=C(C(=O)OCC(C)=O)C1c1ccccc1[N+](=O)[O-]` (configuration not stated) [Aranidipine], for which the “IC50 of cell viability” value is greater than 46 µM.

Consider `CC(CSC(=O)c1ccccc1)C(=O)N1CC(Sc2ccccc2)CC1C(=O)[O-]` (configuration not stated) [ZOFENOPRIL Calcium Salt], for which the “IC50 of cell viability” value was greater than 46 µM.

For the compound `NC(=O)c1cnccn1` [Pyrazinamide], the “IC50 of cell viability” value is greater than 46 µM.

Take `CNC(=O)OCc1cccc(COC(=O)NC)n1` [PYRIDINOL CARBAMATE]: the “IC50 of cell viability” value is greater than 46 µM.

For the compound `ClC1=CC=C2N(CC3CC3)C(=O)C\N=C(\C4=CC=CC=C4)C2=C1` [PRAZEPAM], the “IC50 of cell viability” value is greater than 46 µM.

For `CN1C(=O)COc2c(C(=O)NC3CN4CCC3CC4)cc(Cl)cc21` (configuration not stated), the “IC50 of cell viability” value was greater than 46 µM.

With `CCCCCCCC/C=C\CCCCCCCC(=O)OC[C@@H](O)[C@H]1OC[C@H](O)[C@H]1O` [Sorbitan, mono-(9Z)-9-octadecenoate], the “IC50 of cell viability” value is greater than 46 µM.

For the compound `F[Si-2](F)(F)(F)(F)F` [SODIUM HEXAFLUOROSILICATE], the “IC50 of cell viability” value was greater than 46 µM.

Take `Cc1cccc(Nc2ccccc2C(=O)O)c1C` [Mefenamic acid]: the “IC50 of cell viability” value was greater than 46 µM.

Regarding `CC1(C)SC2C(NC(=O)C(C(=O)[O-])c3ccccc3)C(=O)N2C1C(=O)[O-].[Na+].[Na+]` (configuration not stated) [CARBENICILLIN DISODIUM], the “IC50 of cell viability” value is greater than 46 µM.

In the case of `CC(=O)OC[C@H]1O[C@H]([C@H](OC(C)=O)[C@@H]1OC(C)=O)N2\N=C/C(=O)NC2=O` [Azaribine], the “IC50 of cell viability” value was greater than 46 µM.

In the case of `CNC(C)[C@@H](O)c1ccc(O)cc1` (some centres not stated) [P-HYDROXYEPHEDRINE HYDROCHLORIDE], the “IC50 of cell viability” value is greater than 46 µM.

Consider `Cc1cc2c(C(C)C)c(O)c(O)c(C=O)c2c(O)c1-c1c(C)cc2c(C(C)C)c(O)c(O)c(C=O)c2c1O` [Gossypol], for which the “IC50 of cell viability” value was greater than 46 µM.

In the case of `CC(C)(C(=O)c1cccnc1)c1cccnc1` [Metyrapone], the “IC50 of cell viability” value was greater than 46 µM.

As for `COc1nccnc1N[S+](=O)([O-])c1ccc(N)cc1` [Sulfalene], the “IC50 of cell viability” value was greater than 46 µM.

In the case of `CCS(=O)(=O)C(C)(C)S(=O)(=O)CC` [SULFONMETHANE], the “IC50 of cell viability” value was greater than 46 µM.

On to `CCCC[C@@H](CC)COC(=O)C[C@H](C(=O)OC[C@H](CC)CCCC)S(=O)(=O)[O-]` [Dioctyl sulfosuccinate sodium salt], for which the “IC50 of cell viability” value is greater than 46 µM.

For `COc1ccc2cc(C(C)CO)ccc2c1` (configuration not stated) [NAPROXOL], the “IC50 of cell viability” value was greater than 46 µM.

As for `CCC[C@H]1C[C@H](C(=O)NC(C(C)Cl)C2O[C@@H](SC)C(OP(=O)(O)O)[C@@H](O)[C@@H]2O)N(C)C1` (some centres not stated) [CLINDAMYCIN PO4], the “IC50 of cell viability” value was greater than 46 µM.

`OC(=O)C1=CC=C2[NH]C=C(CCCCN3CC\C(=C/C3)C4=CC=CC=C4)C2=C1` [CARMOXIROLUM]: the “IC50 of cell viability” value is greater than 46 µM.

As for `CC(N)C12CC3CC(CC(C3)C1)C2` (configuration not stated) [Rimantadine hydrochloride], the “IC50 of cell viability” value was greater than 46 µM.

For `O=C1CCC(=O)N1CO` [N-HYDROXYMETHYLSUCCINIMIDE], the “IC50 of cell viability” value was greater than 46 µM.

With `Cl.OC(=O)C/1=C/N(C2=CC=C(F)C=C2)C3=C(C=C(F)C(=C3)N4CCNCC4)C1=O` [SARAFLOXACIN HYDROCHLORIDE], the “IC50 of cell viability” value was greater than 46 µM.

Take `Cc1cc(CC(=O)[O-])n(C)c1C(=O)c1ccc(Cl)cc1` [Sodium zomepirac]: the “IC50 of cell viability” value is greater than 46 µM.

Consider `O=C1/C(=C2\Nc3ccc(S(=O)(=O)O)cc3C2=O)Nc2ccc(S(=O)(=O)O)cc21` [Indigo carmine], for which the “IC50 of cell viability” value was greater than 46 µM.

On to `Cc1c(N)nc([C@@H](CC(N)=O)NC[C@H](N)C(N)=O)nc1C(=O)N[C@H](C(=O)N[C@@H](C)[C@@H](O)[C@@H](C)C(=O)N[C@H](C(=O)NCCc1nc(-c2nc(C(=O)NCCCN[C@H](C)c3ccccc3)cs2)cs1)[C@H](C)O)[C@@H](O[C@H]1O[C@@H](CO)[C@H](O)[C@@H](O)[C@H]1O[C@H]1O[C@@H](CO)[C@@H](O)[C@H](OC(N)=O)[C@H]1O)c1cnc[nH]1` [PEPLOMYCIN SULFATE], for which the “IC50 of cell viability” value was greater than 46 µM.

For `CO/N=C(\C(=O)N[C@@H]1C(=O)N2C(C(=O)[O-])=C(COC(C)=O)CS[C@@H]12)c1csc(N)n1.[Na+]` [Cefotaxime sodium salt], the “IC50 of cell viability” value is greater than 46 µM.

In the case of `COC(=O)N/N=C/c1c[n+]([O-])c2ccccc2[n+]1[O-]` [CARBADOX], the “IC50 of cell viability” value was greater than 46 µM.

For `N#Cc1ccc(C(c2ccc(C#N)cc2)n2cncn2)cc1` [Letrozole], the “IC50 of cell viability” value is greater than 46 µM.

For `C[C@H]1[C@H](O)[C@@H](C)/C=C/C=C/CC/C=C/C=C/C=C/C=C/[C@H](O[C@@H]2O[C@H](C)[C@@H](O)[C@H](N)[C@@H]2O)C[C@@H]2O[C@](O)(C[C@@H](O)[C@H](O)CC[C@@H](O)C[C@@H](O)C[C@@H](O)CC(=O)O[C@H]1C)C[C@H](O)[C@H]2C(=O)O` [Nystatin], the “IC50 of cell viability” value is greater than 46 µM.

On to `CCCCC/1=N/C2(CCCC2)C(=O)N1CC3=CC=C(C=C3)C4=CC=CC=C4C5=NN=N[NH]5` [IRBESARTAN], for which the “IC50 of cell viability” value was greater than 46 µM.

Turning to `COc1cc(N)c(Cl)cc1C(=O)NC1CN2CCC1CC2` (configuration not stated) [Zacopride hydrochloride], the “IC50 of cell viability” value was greater than 46 µM.

In the case of `COc1ccc2c(=O)c(C)c(-c3ccccc3)oc2c1CN(C)C` [DIMEFLINE HYDROCHLORIDE], the “IC50 of cell viability” value was greater than 46 µM.

Consider `CC(=O)NCCCS(=O)(=O)[O-]` [ACAMPROSATE CALCIUM], for which the “IC50 of cell viability” value is greater than 46 µM.

On to `O=[N+]([O-])c1cc([N+](=O)[O-])c2ccccc2c1` [1,3-Dinitronaphthalene], for which the “IC50 of cell viability” value was greater than 46 µM.

For `C=C1/C(=C\C=C2/CCC[C@]3(C)[C@@H]([C@H](C)/C=C/[C@@H](O)C4CC4)CC[C@@H]23)C[C@@H](O)C[C@@H]1O` [CALCIPOTRIENE], the “IC50 of cell viability” value is greater than 46 µM.

With `CN1N(C(=O)/C=C1/C)C2=CC=CC=C2` [Phenazone], the “IC50 of cell viability” value was greater than 46 µM.

Turning to `CCCCCC1Nc2cc(C(F)(F)F)c([S+](N)(=O)[O-])cc2[S+](=O)([O-])N1` (configuration not stated) [PENFLUTIZIDE], the “IC50 of cell viability” value is greater than 46 µM.

`CN1C2=CC(=O)/C(=N\NC(N)=O)C=C2CC1S(=O)(=O)[O-]` (configuration not stated) [CARBAZOCHROME SODIUM SULFONATE]: the “IC50 of cell viability” value is greater than 46 µM.

For `Cc1cc(O)c(C(=O)N[C@@H](C(=O)N[C@@H]2C(=O)N3C(C(=O)O)=C(CSc4nnnn4C)CS[C@H]23)c2ccc(O)cc2)cn1` [CEFPIRAMIDE SODIUM], the “IC50 of cell viability” value was greater than 46 µM.

With `C[C@H]1O[C@H]([C@H](O)[C@@H]1O)N2\C=C(F)/C(=O)NC2=O` [Doxifluridine], the “IC50 of cell viability” value is greater than 46 µM.

As for `CC(C)CCC(=O)OC1CCC2C3CCC4=CC(=O)CC[C@]4(C)C3CC[C@]12C` (some centres not stated) [TESTOSTERONE ISOCAPROATE], the “IC50 of cell viability” value was greater than 46 µM.

Regarding `O=C(NO)c1ccccc1` [Benzhydroxamic acid], the “IC50 of cell viability” value is greater than 46 µM.

In the case of `CCc1ccc(C(=O)C(C)CN2CCCCC2)cc1` (configuration not stated) [EPERISONE HYDROCHLORIDE], the “IC50 of cell viability” value was greater than 46 µM.

On to `CC(O)CCCCn1c(=O)c2c(ncn2C)n(C)c1=O` (configuration not stated) [Lisofylline], for which the “IC50 of cell viability” value was greater than 46 µM.

On to `Cc1ccc2c(Cl)cc(Cl)c(O)c2n1` [5,7-Dichloro-8-hydroxy-2-methylquinoline], for which the “IC50 of cell viability” value was greater than 46 µM.

With `O=C(CCCN1CCC(O)(c2ccc(Br)cc2)CC1)c1ccc(F)cc1` [Bromperidol], the “IC50 of cell viability” value is greater than 46 µM.

For the compound `CCc1ccc(S(=O)(=O)O)cc1`, the “IC50 of cell viability” value was greater than 46 µM.

For `Oc1cc(O)cc(O)c1` [PHLOROGLUCINOL], the “IC50 of cell viability” value was greater than 46 µM.

On to `C[C@@H](CCc1ccccc1)NC[C@H](O)c1ccc(O)c(C(N)=O)c1` [Labetalol hydrochloride], for which the “IC50 of cell viability” value was greater than 46 µM.

For `COc1c(O)cc2c(c1O)[C@H]1O[C@@H](CO)[C@@H](O)[C@@H](O)[C@@H]1OC2=O.O` [Bergenin monohydrate], the “IC50 of cell viability” value is greater than 46 µM.

As for `NCC(CC(=O)O)c1ccc(Cl)cc1` (configuration not stated) [BACLOFEN], the “IC50 of cell viability” value was greater than 46 µM.

Take `COc1cc2c3cc1Oc1cc(ccc1O)C[C@@H]1c4c(cc(OC)c(O)c4Oc4ccc(cc4)C[C@@H]3N(C)CC2)CC[N+]1(C)C` [(+)-TUBOCURARINE]: the “IC50 of cell viability” value is greater than 46 µM.

In the case of `COP(=O)(OC)OC(c1ccc(Cl)cc1)P(=O)(OC)OC` (configuration not stated) [MIFOBATUM], the “IC50 of cell viability” value is greater than 46 µM.

For the compound `CC(C)(C)OC(=O)c1ncn2c1[C@@H]1CCCN1C(=O)c1c(Br)cccc1-2` [Bretazenil], the “IC50 of cell viability” value was greater than 46 µM.
